We go through one compound from patent US20110263693A1, “CELASTROL, GEDUNIN, AND DERIVATIVES THEREOF AS HSP90 INHIBITORS” (DANA-FARBER CANCER INSTITUTE, INC., priority 2006, published 2011).

In one data set the test system is Raf-1. The data set is described as follows: Western blot of HSP90 client Raf-1 level. As to conditions: LNCaP, 1.25 μM, 24 hours. In kind it is cell-based.
The test system of the next data set is celastrol signature. In words: Connectivity Map query with the celastrol signature. In kind it is cell-based, human. The method in brief:
(§1)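 LNCaP cells received celastrol 1.25 μM or gedunin 20 μM for 6 h. Each signature was scored by Kolmogorov–Smirnov-based connectivity against 453 build01 profiles, mostly 6 h treatments of MCF7 cells.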

For data set [1], the system named is HSP90 interaction with the cochaperone p23. In words: HSP90 coimmunoprecipitation, p23. In kind it is cell-based. As to conditions: SKBR-3 cells; celastrol 2.5 μM, 12 hr. As to the method: Geldanamycin and other HSP90 inhibitors are known to inhibit p23 association with HSP90 (Felts et al., 2003).
(§2) SKBR-3 cells were treated with vehicle, celastrol (2.5 μM, 12 hr), and PU24FCI (20 μM, 24 hr) (Vilenchik et al., 2004). Cells were lysed in 20 mM Tris HCl (pH 7.4), 25 mM NaCl, 2 mM DDT, 20 mM Na2MoO4, 0.1% NP-40, and […]. Lysates were incubated for 2 hr at 4° C., rotating, and then centrifuged at 13,000×g for 10 min. Protein (500 μg) was incubated with H9010 anti-HSP90 antibody for 1 hr at 4° C., rotating. Protein G agarose (30 μl; Upstate) was added to each sample, and samples were then incubated for 1 hr at 4° C., rotating. The beads were washed five times with 1 ml lysis buffer. Bound proteins were isolated by boiling in sample buffer. The levels of HSP90 and coimmunoprecipitating proteins were analyzed by western blot.

The target in a further data set is hERG potassium channel (Homo sapiens, UniProt Q12809). As to conditions: by inhibiting hERG maturation (Sun et al., 2006); cited from earlier work. A general note: Block of hERG is tested as a sign of cardiac risk.
hERG potassium channel, sequence (Q12809 whole entry): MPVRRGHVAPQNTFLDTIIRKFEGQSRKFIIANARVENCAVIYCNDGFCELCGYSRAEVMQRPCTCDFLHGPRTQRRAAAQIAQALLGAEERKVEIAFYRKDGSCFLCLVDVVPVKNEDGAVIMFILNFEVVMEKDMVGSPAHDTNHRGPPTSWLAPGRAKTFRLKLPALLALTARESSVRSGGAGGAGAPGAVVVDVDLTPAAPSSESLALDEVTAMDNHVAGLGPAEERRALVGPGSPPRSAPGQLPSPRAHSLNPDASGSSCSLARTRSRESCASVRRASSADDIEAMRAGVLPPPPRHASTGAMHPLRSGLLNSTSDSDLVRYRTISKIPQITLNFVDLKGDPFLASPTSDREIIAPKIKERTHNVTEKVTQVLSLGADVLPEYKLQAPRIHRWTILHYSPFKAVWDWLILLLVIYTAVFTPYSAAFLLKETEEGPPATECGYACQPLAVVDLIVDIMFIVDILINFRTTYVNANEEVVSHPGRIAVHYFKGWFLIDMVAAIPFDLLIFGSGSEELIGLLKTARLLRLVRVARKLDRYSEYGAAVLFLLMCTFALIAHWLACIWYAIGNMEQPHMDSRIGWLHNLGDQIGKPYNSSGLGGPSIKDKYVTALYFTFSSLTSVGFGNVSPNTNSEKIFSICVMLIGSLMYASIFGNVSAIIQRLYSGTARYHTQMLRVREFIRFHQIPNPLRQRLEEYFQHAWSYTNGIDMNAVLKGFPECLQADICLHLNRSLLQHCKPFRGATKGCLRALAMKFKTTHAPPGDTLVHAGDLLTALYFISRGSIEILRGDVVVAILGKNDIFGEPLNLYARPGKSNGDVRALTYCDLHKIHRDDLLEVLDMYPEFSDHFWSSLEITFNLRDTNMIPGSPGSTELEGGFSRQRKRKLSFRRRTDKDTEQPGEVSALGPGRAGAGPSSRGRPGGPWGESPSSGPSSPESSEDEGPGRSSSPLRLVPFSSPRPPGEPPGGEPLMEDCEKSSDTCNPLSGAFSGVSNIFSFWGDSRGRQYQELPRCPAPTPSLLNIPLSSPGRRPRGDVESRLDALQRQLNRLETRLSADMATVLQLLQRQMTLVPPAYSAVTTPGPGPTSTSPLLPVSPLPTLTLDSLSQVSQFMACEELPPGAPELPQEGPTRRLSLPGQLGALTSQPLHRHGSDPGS
In another data set the test system is HSP70. As to conditions: Westerheide et al., 2004; cited from earlier work.
A further data set concerns gedunin signature. The data set is described as follows: Connectivity Map query with the gedunin signature. In kind it is cell-based, human. A digest of the protocol: as §1
For another data set, the system named is HSP90-HOP interaction. In words: HSP90 coimmunoprecipitation, HOP. Particulars: SKBR-3 cells; celastrol 2.5 μM, 12 hr. In kind it is cell-based. As to the method: Geldanamycin and other HSP90 inhibitors are known to inhibit p23 association with HSP90 (Felts et al., 2003). In contrast, HSP90-HOP interaction was unaltered by celastrol and other HSP90 inhibitors (FIG. 7F). Thus, celastrol inhibits the functional interactions of HSP90 and suppresses HSP90 client levels.
as §2

As to `CC1=C(O)C(=O)C=C2C1=CC=C1[C@@]2(C)CC[C@@]2(C)[C@@H]3C[C@](C)(C(=O)O)CC[C@]3(C)CC[C@]12C` [celastrol], the “level of Raf-1” value in the data set on Raf-1 is recorded as “decreases the levels”. The “celastrol score (connectivity score)” value in the data set on celastrol signature (enrichment of the celastrol signature (1.25 μM celastrol at 6 h, LNCaP) in the compound's Connectivity Map profiles, 6 hr treatment) was 0.85. For the same compound, the “Connectivity Map rank of match for the celastrol signature” value in the data set on celastrol signature (out of 164 compounds, signature from LNCaP 1.25 μM, 6 hr) is on record as “fourth-ranked match”. In addition, the “HSP90 interaction with cochaperone p23 (coimmunoprecipitation)” value in data set [1] is “reduced HSP90 interaction with the cochaperone p23”. Also, at hERG potassium channel, the “hERG potassium channel activity” value is on record as “suppress hERG potassium channel activity”. The HSP70 levels entry in the data set on HSP70 is recorded as “induce HSP70 levels”. In the data set with gedunin signature (enrichment of the gedunin signature (20 μM gedunin at 6 hours, LNCaP) in the compound's Connectivity Map profiles, 6 hr treatment), the “gedunin score (connectivity score)” value is reported as 0.997. Further, the “Connectivity Map rank of match for the gedunin signature” value in the data set on gedunin signature (out of 164 compounds, signature from LNCaP 20 μM, 6 hr) is listed as “top match”. For the same compound, the “HSP90-HOP interaction (coimmunoprecipitation)” value in the data set with HSP90-HOP interaction is “unaltered”.
